Reference: patent publication US20030138423A1, “Method of treating inflammation with HIV-1 protease inhibitors and their derivatives” (CEDARS-SINAI MEDICAL CENTER, priority 2001, published 2003)
Entries after “also recorded” stand apart in the source; their conditions may differ.

Columns and labels:
20S proteasome = 20S proteasome (Mus musculus, UniProt O55234); conditions: literature; cited from earlier work
IL-6 = test: LPS-induced IL-6 luciferase activation in HMEC; assay type: cell-based, human; conditions: 1-hour pretreatment
Text: Interleukin-6 (IL-6) is a known proinflammatory cytokine that mediates development of LPS-induced sepsis and septic shock.

TNF-α = test: LPS-induced TNF-α production in THP-LTR-Luc cells, ELISA; assay type: cell-based; conditions: THP-LTR-Luc cells (FIG. 9 legend)
Protocol: After five hours of LPS stimulation, supernatants from HMEC were analyzed for TNF-α production by using an ELISA kit (obtained from R&D Systems; Minneapolis, Minn.) according to manufacturer's instructions. All data for TNF-α represent the average of triplicate samples ±S.D. Each experiment was repeated at least twice.

IκB-α = test: LPS-induced IκB-α degradation in HMEC, Western blot; assay type: cell-based, human; conditions: HMEC pretreated one hour, LPS 30, 60, 90 minutes
Protocol: Conditioned endothelial cells were lysed for 30 minutes on ice in a lysis buffer containing 0.1 mM ethylenediamine tetra-acetic acid (“EDTA,” available from Sigma), 10 mM NaF, 1 mM Na3VO4, 0.1% Triton X-100, 20 mM Tris-HCl (pH 7.5), and 1 μg/ml each of the protease inhibitors pepstatin, leupeptin, aprotinin, antipain, and chymostatin (all available from Roche).
Following lysis, cell debris was removed by centrifugation (14,000×g, 4° C., 1-2 minutes). Protein concentrations were determined using the Bradford assay. 50 μg of total protein was added in Laemmli buffer, boiled for 5 minutes, resolved by 10% sodium dodecyl sulphate polyacrylamide gel electrophoresis (“SDS-PAGE”) in Tris/glycine/SDS buffer (25 mM Tris, 250 mM glycine, 0.1% SDS), and blotted onto Immunobilon P transfer membranes (obtained from Amersham Pharmacia Biotech UK Ltd.; Buckinghamshire, England, hereinafter “Amersham”) (100 V, 1.5 hours, 4° C.). […] Membranes were thereafter and washed five times in PBST, and bands were detected using ECL reagents (obtained from Amersham) according to manufacturer's description.
Upon exposure of immune system cells to bacterial and mycobacterial antigens, IκB-α degradation is the key step before NF-κB activation. We assessed the effect of nelfinavir pretreatment of HMEC on LPS-induced IκB-α degradation. […] IκB-α degradation was assessed by Western Blot analysis for phosphorylated IκB-α.

[1] = target: T1, erythrocyte 20S proteasome (Homo sapiens, UniProt P28074); test: 20S Proteasome Assay, Suc-LLVY-AMC substrate; assay type: biochemical; conditions: SDS-preactivated erythrocyte 20S proteasome
T1 construct: purchased Biomol Research Laboratories, Inc; host or cells: erythrocytes (purified native complex)
Protocol: The effect of nelfinavir on 20S proteasome activity was assessed using a 20S Proteasome Assay Kit (obtained from Biomol Research Laboratories, Inc.; Plymouth Meeting, Pa.) according to manufacturer's instructions. Briefly, erythrocyte 20S proteasome that is preactivated by SDS was added to Suc-LLVY-AMC fluorogenic peptide substrate, which is used to measure the chymotrypsin like peptidase activity, with or without nelfinavir. A proteasome inhibitor, lactacystin, was included as a control. The microtiter plate was read at an approximate excitation of 360 nm and at emission 460 nm. All data represent the average of triplicate samples ±S.D.

HIV-LTR = test: LPS-induced HIV-LTR luciferase activation in HMEC; conditions: nelfinavir 1, 3, 6 μg/ml (FIG. 2) or 0.5, 2, 4 μg/ml (FIG. 6)
NF-κB [2] = test: PSM-induced NF-κB luciferase activation in HMEC; assay type: cell-based, human; conditions: one-hour pretreatment
NF-κB [3] = test: LPS-induced NF-κB luciferase activation in HMEC; conditions: pretreatment before LPS, nelfinavir 1, 3, 6 μg/ml
HMEC = test: LDH release (cell death) in HMEC; assay type: cell-based, human; conditions: pretreatment prior to LPS stimulation
Protocol: For the quantification of nelfinavir-induced cell death, lactate dehydrogenase (LDH) activity in HMEC culture supernatants was measured with a cytotoxicity detection kit (obtained from Roche Diagnostics; Indianapolis, Ind., hereinafter “Roche”) according to manufacturer's instructions. Percentage of LDH activity in the supernatants was calculated according to the following: [(Experimental Value—LDH activity released from untreated cells)/(Maximum Releasable LDH Activity in the Cells by 1% Triton X-100-LDH Activity Released from Untreated Cells)]×100.

NF-κB [4] = test: STF-induced NF-κB luciferase activation in HMEC; assay type: cell-based, human; conditions: one-hour pretreatment
NF-κB [5] = test: TNF-α-induced NF-κB activation in HMEC; assay type: cell-based, human; conditions: one-hour pretreatment, TNF-α 100 ng/ml
[6] = tested on: MB-1 (X) and/or LMP7 proteasome subunits; conditions: vinyl sulfone inhibitor 125I-NLVS, literature; cited from earlier work
[7] = tested on: lymphocytic choriomeningitis virus (LCMV); conditions: mice infected with LCMV, literature; cited from earlier work

Structure (SMILES) | chymotrypsin-like activity of the 20S proteasome (20S proteasome) | LPS-induced IL-6 luciferase activation (IL-6) | LPS-induced TNF-α production (TNF-α) | LPS-induced IκB-α degradation (IκB-α) | chymotrypsin-like activity of 20S proteasome [1] | LPS-induced HIV-LTR activation (percent HIV-LTR luciferase activity) (HIV-LTR) | PSM-induced NF-κB activation (percent NF-κB luciferase activity) (NF-κB [2]) | LPS-induced NF-κB activation (percent NF-κB luciferase activity) (NF-κB [3]) | cell death (LDH release) (HMEC) | STF-induced NF-κB activation (percent NF-κB luciferase activity) (NF-κB [4]) | TNF-α-induced NF-κB activation (NF-κB [5]) | protection of proteasome subunits from covalent active site modification [6] | LCMV replication [7]
CC(C)(C)NC(=O)[C@@H]1CN(Cc2cccnc2)CCN1C[C@@H](O)C[C@@H](Cc1ccccc1)C(=O)N[C@H]1c2ccccc2C[C@H]1O [indinavir] | no inhibition at all | blocked LPS-induced IL-6 luciferase activation | blocked TNF-α production | – | – | – | – | – | – | – | – | – | –
Cc1c(O)cccc1C(=O)N[C@@H](CSc1ccccc1)[C@H](O)CN1C[C@H]2CCCC[C@H]2C[C@H]1C(=O)NC(C)(C)C [nelfinavir] | no inhibition at all | blocked LPS-induced IL-6 luciferase activation | blocked production to a lesser extent | markedly less LPS-induced IκB-α degradation; also recorded: delayed the degradation; also recorded: a delay in LPS-induced IκB-α degradation | did not inhibit the chymotrypsin-like activity of 20s proteasome | blocked LPS-induced HIV-LTR activation in a dose-dependent manner | blocked NF-κB activation; also recorded: blocked both STF and PSM | blocked LPS-induced NF-κB activation in a dose-dependent manner; also recorded: decreased the NF-κB activity | without inducing apoptosis or death of the cells; also recorded: did not induce cell death; also recorded: not induced | blocked NF-κB activation; also recorded: blocked both STF and PSM | down-regulated | – | –
CC(C)c1nc(CN(C)C(=O)N[C@H](C(=O)N[C@@H](Cc2ccccc2)C[C@H](O)[C@H](Cc2ccccc2)NC(=O)OCc2cncs2)C(C)C)cs1 [ritonavir] | selectively inhibit the chymotrypsin-like activity of the 20S proteasome | blocked LPS-induced IL-6 luciferase activation | blocked production to a lesser extent | – | – | – | – | blocked LPS-induced NF-κB activation; also recorded: more potent than indinavir; also recorded: down-regulation of LPS-induced NF-κB activation | – | – | down-regulated | protected the MB-1 (X) and/or LMP7 proteasome subunits from covalent active site modification | not affected
CC(C)(C)NC(=O)[C@@H]1C[C@@H]2CCCC[C@@H]2CN1C[C@@H](O)[C@H](Cc1ccccc1)NC(=O)[C@H](CC(N)=O)NC(=O)c1ccc2ccccc2n1 [saquinavir] | inhibited chymotrypsin-like activity to a significantly lesser degree | blocked LPS-induced IL-6 luciferase activation | blocked TNF-α production | – | – | – | – | blocked LPS-induced NF-κB activation; also recorded: more potent than indinavir; also recorded: down-regulation of LPS-induced NF-κB activation | – | – | down-regulated | – | –
